Test results: PubChem BioAssay (NCI)
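Protocol summary: plate cells (96-well), add compound at 5 concentrations, incubate 48 h, interpolate endpoints linearly. At the GI50, growth is halved. The concentration for full growth arrest is given as TGI.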

Legend:
Experiment in all cases: DTP human tumour cell line panel, 48 h
[1] = tested on: DMS 114 small cell lung
[2] = tested on: DLD-1 colon
[3] = tested on: M19-MEL melanoma
[4] = tested on: LXFL 529 NSCLC
[5] = tested on: XF 498 CNS
[6] = tested on: HOP-18 NSCLC
[7] = tested on: RXF-631 renal
[8] = tested on: NCI/ADR-RES ovarian
[9] = tested on: MDA-MB-435
[10] = tested on: BT-549 breast
[11] = tested on: T-47D breast
[12] = tested on: MDA-MB-231 breast

Row | SMILES | TGI [1] [µM] | TGI [2] [µM] | TGI [3] [µM] | TGI [4] [µM] | TGI [5] [µM] | TGI [6] [µM] | TGI [7] [µM] | other results
1 | O=C1C=C(Nc2ccccc2C(=O)CC(=O)C(=O)Nc2ccc(Cl)c(Cl)c2)c2ccccc2C1=O | 66.7 | > 100 | 8.96 |  |  |  |  | 
2 | NNC(=S)N/N=C/C(Cl)=C(\Cl)C(=O)O | > 100 | > 100 | > 100 | > 100 | > 100 |  |  | 
3 | N#Cc1ccccc1Nc1ccccc1S | 42.8 | > 100 | > 100 | 59.3 | 40 | > 100 | > 100 | 
4 | C1=c2ccccc2=C2C(=C(c3ccccc3)C(c3ccccc3)=NN2c2ccccc2)S1 | > 100 | > 100 | > 100 | > 100 |  | > 100 |  | 
5 | O=C1C2Nc3ccccc3SC2C(=O)N1c1cccc([N+](=O)[O-])c1 (stereo not drawn) | > 100 | > 100 | > 100 | > 100 | > 100 |  | > 100 | 
6 | Cc1nc(N)sc1C(=O)/C=C/c1ccc([N+](=O)[O-])cc1 | > 100 | > 100 | > 100 |  |  | > 100 |  | 
7 | Cc1cccc(N=C2NC(=O)C(CC(=O)Nc3ccc(Cl)cc3C)S2)c1 (stereo not drawn) | > 100 | > 100 | > 100 | > 100 |  | > 100 | > 100 | 
8 | CCOc1ccc(NC(=O)CCC(=O)NN)cc1 | > 100 | > 100 |  | > 100 | 95 | > 100 |  | 
9 | CCCCCC(=O)Cc1cc(OC)cc2c1C(=O)Oc1cc(O)c(C(=O)O)c(CC(=O)CCCCC)c1O2 | > 100 | > 100 | 69.6 | > 100 | > 100 |  | > 100 | 
10 | COc1ccc(C2S/C(=C\c3cccc(O)c3)C(=O)N2NC(=O)Cc2ccccc2)cc1 (stereo not drawn) | > 100 | > 100 | > 100 | > 100 |  | > 100 |  | 
11 | C=C1CC(C/C=C(\C)CC2CC(=C)C(=O)O2)OC1=O (stereo not drawn) | > 100 | > 100 | > 100 | > 100 | > 100 | > 100 | > 100 | 
12 | COc1ccc(C2C(Cl)C(=O)N2NC(=O)c2ccc(N)cc2)cc1OC (stereo not drawn) |  | 15.4 | 16.1 | 3.78 | 2.3 |  |  | TGI [8]: 5.16 µM; TGI [9]: 19.1 µM; TGI [10]: 18.3 µM; TGI [11]: 24.9 µM; TGI [12]: 39.7 µM
13 | Cn1c2c(cc(-c3ccccc3)c1=O)COc1ccccc1-2 | 36.2 | > 100 | 64.2 | > 100 | 26.1 | > 100 |  | 
14 | CO[C@H](c1ccccc1)[C@H](C)N(C)c1ccc2ccccc2c1C1=NC(C)(C)CO1 | 33.7 | 31.8 | 36.6 | 49.6 | 33.5 | 31.9 | 39.8 | 
15 | CC1=NN(c2ccccc2)C(=O)C1=C1SCCCS1 | 45.2 | 45.9 | > 100 | > 100 | 58.6 | > 100 |  | 
16 | COC(=O)/C(=N\O)C(C(=O)C=C(C)C)C(=O)C(=O)Nc1ccccc1C (stereo not drawn) | > 100 | > 100 | > 100 | > 100 | > 100 | > 100 |  | 
17 | CO[C@@]12CC(=O)/C(=C(O)\C=C\c3ccccc3)C(=O)[C@]1(OC)Cc1ccccc1O2 | > 100 | > 100 | > 100 | > 100 | > 100 | > 100 | > 100 | 
18 | COc1cccc(/C=C2\C(=O)N(C(=O)Cc3ccccc3)N=C2C)c1 | > 100 | > 100 | > 100 |  | > 100 | > 100 |  | 

Row | SMILES | TGI [1] [µM] | TGI [2] [µM] | TGI [3] [µM] | TGI [4] [µM] | TGI [5] [µM] | TGI [6] [µM] | TGI [7] [µM] | other results
19 | Nn1c(N=Nc2c(O)[nH]c3ccccc23)n[nH]c1=S | > 100 | > 100 | > 100 | > 100 | 94 | > 100 |  | 
20 | CC(C)(C)C(=O)[CH-]C(=O)C(F)(F)C(F)(F)C(F)(F)F.CC(C)(C)C(=O)[CH-]C(=O)C(F)(F)C(F)(F)C(F)(F)F.[O-]CC1OC(O)C(O)C(O)C1O.[O-]CC1OC(O)C(O)C(O)C1O.[Ti+4] | > 100 | > 100 | > 100 | > 100 | > 100 | > 100 |  | GI50 [1]: > 100 µM; GI50 [2]: 67.4 µM; GI50 [3]: > 100 µM; GI50 [6]: > 100 µM; GI50 [4]: 71.4 µM; GI50 [5]: > 100 µM
21 | O=C(/C=C/c1ccc(Cl)c(Cl)c1)C1CCC(Cl)CC1 (stereo not drawn) | 30.7 | 29.8 | 31.7 | 32.3 | 33 | 58.1 | 33.8 | 
22 | COc1cc(C2C(Cl)C(=O)N2NC(=O)Cc2ccccc2)ccc1O (stereo not drawn) | > 100 | > 100 | > 100 | > 100 | > 100 | > 100 |  | 
23 | CCOC(=O)c1cn2c([nH]c3ccccc32)c(C#N)c1=O |  | > 100 | > 100 | > 100 | > 100 | > 100 | > 100 | 
24 | COCC12CC(CC1=O)C1C2ON2c3ccccc3C(=O)C12c1ccccc1 (stereo not drawn) | > 100 | > 100 |  | > 100 | > 100 | > 100 |  | 
25 | CCCOCN1COCN=C1NC#N | 39.7 | > 100 | 88.1 | > 100 | > 100 | > 100 |  | 
26 | CCOC(=O)c1c(C(F)(F)F)oc2c1ccc1nc3nonc3nc12 | 55.9 | 28.6 | 38.2 | 27.2 | 30.8 | 26 | 37.6 | 
27 | C[N+](C)(Cc1ccc(NC(=O)CCCC(=O)ON2C(=O)CCC2=O)cc1)c1ccccc1 |  | > 100 | > 100 | > 100 |  | < 0.01 |  | 
28 | Cc1cc(=O)[nH]c(CNC(=O)Cc2ccccc2)n1 | > 100 | > 100 | > 100 | > 100 | > 100 |  |  | 
29 | Cn1c(N)c(-c2c3ccccc3nc3ccccc23)c(=O)n(C)c1=O | > 100 |  | > 100 | > 100 |  | > 100 |  | 
30 | O=S(Cc1cc2c(cc1Br)OCO2)c1ccccc1 (stereo not drawn) | 61.8 | 49.5 | > 100 | > 100 |  | > 100 |  | 
31 | COC(=O)c1cc(C)n(NC(=O)OC(C)(C)C)c1C | > 100 | > 100 | > 100 | > 100 |  |  |  | 
32 | CCOC(=O)C1CC/C(=C(/C#N)C(=O)OC)N1 (stereo not drawn) | > 100 | > 100 | > 100 | > 100 | > 100 |  |  | 
33 | COC(=O)C(=O)C1CCCCC(C2=NC3NN=C(N)N3C2=O)C1=O (stereo not drawn) | > 100 | > 100 | > 100 | > 100 | > 100 | > 100 | > 100 | 
34 | O=C(Nc1cc(Cl)c(Cl)cc1Cl)C(=O)C(C(=O)c1ccc2ccccc2c1)C1OC(=O)c2ccccc21 (stereo not drawn) | 44.1 | 32.9 | 53.6 | 22.6 |  |  |  | 
35 | COc1ccc(/C(Cl)=C/c2ccc(Cl)c(Cl)c2)cc1 | 43.8 | > 100 | > 100 | > 100 | 44.3 | 88.9 |  | 
36 | N#C/C(=C\c1ccc(O)cc1O)C(N)=O |  | > 100 | > 100 | > 100 | > 100 |  |  | 
